# Assay results: ChEMBL document CHEMBL4627246, “Pyroglutamide-Based P2X7 Receptor Antagonists Targeting Inflammatory Bowel Disease” (J Med Chem, 2020)
# Test system: A549
# Assay: Cytotoxicity against human A549/ATCC cells assessed as effect on cell growth at 10 uM incubated for 48 hrs by sulforhodamine B assay
# Format: cell-based
# Settings: a549, 48 h
row,Compound,Activity
1,O=C(NCc1ccccc1Cl)[C@@H]1CCC(=O)N1Cc1ccccc1,Non-Toxic
2,O=C(NCc1ccc(Cl)cc1Cl)[C@@H]1CCC(=O)N1c1cccs1,Non-Toxic
3,CN(C)/C=C1\C[C@H]2C(=O)N(Cc3ccccc3Cl)C(N(C)C)N2C1=O (stereo not given in full),Non-Toxic
4,O=C(Nc1ccc(Cl)cc1Cl)[C@@H]1CCC(=O)N1Cc1ccccc1Cl,Non-Toxic

# Test system: SR
# Assay: Cytotoxicity against human SR cells assessed as effect on cell growth at 10 uM incubated for 48 hrs by sulforhodamine B assay
# Format: cell-based
# Settings: not given
row,Compound,Activity
1,O=C(NCc1ccccc1Cl)[C@@H]1CCC(=O)N1Cc1ccccc1,Non-Toxic
2,O=C(NCc1ccc(Cl)cc1Cl)[C@@H]1CCC(=O)N1c1cccs1,Non-Toxic
3,CN(C)/C=C1\C[C@H]2C(=O)N(Cc3ccccc3Cl)C(N(C)C)N2C1=O (stereo not given in full),Non-Toxic
4,O=C(Nc1ccc(Cl)cc1Cl)[C@@H]1CCC(=O)N1Cc1ccccc1Cl,Non-Toxic

# Test system: RPMI-8226
# Assay: Cytotoxicity against human RPMI8226 cells assessed as effect on cell growth at 10 uM incubated for 48 hrs by sulforhodamine B assay
# Format: cell-based
# Settings: rpmi-8226, 48 h
row,Compound,Activity
1,O=C(NCc1ccccc1Cl)[C@@H]1CCC(=O)N1Cc1ccccc1,Non-Toxic
2,O=C(NCc1ccc(Cl)cc1Cl)[C@@H]1CCC(=O)N1c1cccs1,Non-Toxic
3,CN(C)/C=C1\C[C@H]2C(=O)N(Cc3ccccc3Cl)C(N(C)C)N2C1=O (stereo not given in full),Non-Toxic
4,O=C(Nc1ccc(Cl)cc1Cl)[C@@H]1CCC(=O)N1Cc1ccccc1Cl,Non-Toxic

# Test system: MOLT-4
# Assay: Cytotoxicity against human MOLT4 cells assessed as effect on cell growth at 10 uM incubated for 48 hrs by sulforhodamine B assay
# Format: cell-based
# Settings: molt-4, 48 h
row,Compound,Activity
1,O=C(NCc1ccccc1Cl)[C@@H]1CCC(=O)N1Cc1ccccc1,Non-Toxic
2,O=C(NCc1ccc(Cl)cc1Cl)[C@@H]1CCC(=O)N1c1cccs1,Non-Toxic
3,CN(C)/C=C1\C[C@H]2C(=O)N(Cc3ccccc3Cl)C(N(C)C)N2C1=O (stereo not given in full),Non-Toxic
4,O=C(Nc1ccc(Cl)cc1Cl)[C@@H]1CCC(=O)N1Cc1ccccc1Cl,Non-Toxic

# Test system: EKVX
# Assay: Cytotoxicity against human EKVX cells assessed as effect on cell growth at 10 uM incubated for 48 hrs by sulforhodamine B assay
# Format: cell-based
# Settings: not given
row,Compound,Activity
1,O=C(NCc1ccccc1Cl)[C@@H]1CCC(=O)N1Cc1ccccc1,Non-Toxic
2,O=C(NCc1ccc(Cl)cc1Cl)[C@@H]1CCC(=O)N1c1cccs1,Non-Toxic
3,CN(C)/C=C1\C[C@H]2C(=O)N(Cc3ccccc3Cl)C(N(C)C)N2C1=O (stereo not given in full),Non-Toxic
4,O=C(Nc1ccc(Cl)cc1Cl)[C@@H]1CCC(=O)N1Cc1ccccc1Cl,Non-Toxic

# Test system: HL-60(TB)
# Assay: Cytotoxicity against human HL-60(TB) cells assessed as effect on cell growth at 10 uM incubated for 48 hrs by sulforhodamine B assay
# Format: cell-based
# Settings: not given
row,Compound,Activity
1,O=C(NCc1ccccc1Cl)[C@@H]1CCC(=O)N1Cc1ccccc1,Non-Toxic
2,O=C(NCc1ccc(Cl)cc1Cl)[C@@H]1CCC(=O)N1c1cccs1,Non-Toxic
3,CN(C)/C=C1\C[C@H]2C(=O)N(Cc3ccccc3Cl)C(N(C)C)N2C1=O (stereo not given in full),Non-Toxic
4,O=C(Nc1ccc(Cl)cc1Cl)[C@@H]1CCC(=O)N1Cc1ccccc1Cl,Non-Toxic

# Test system: NCI-H460
# Assay: Cytotoxicity against human NCI-H460 cells assessed as effect on cell growth at 10 uM incubated for 48 hrs by sulforhodamine B assay
# Format: cell-based
# Settings: nci-h460, 48 h
row,Compound,Activity
1,O=C(NCc1ccccc1Cl)[C@@H]1CCC(=O)N1Cc1ccccc1,Non-Toxic
2,O=C(NCc1ccc(Cl)cc1Cl)[C@@H]1CCC(=O)N1c1cccs1,Non-Toxic
3,CN(C)/C=C1\C[C@H]2C(=O)N(Cc3ccccc3Cl)C(N(C)C)N2C1=O (stereo not given in full),Non-Toxic
4,O=C(Nc1ccc(Cl)cc1Cl)[C@@H]1CCC(=O)N1Cc1ccccc1Cl,Non-Toxic

# Test system: HCT-15
# Assay: Cytotoxicity against human HCT15 cells assessed as effect on cell growth at 10 uM incubated for 48 hrs by sulforhodamine B assay
# Format: cell-based
# Settings: hct-15, 48 h
row,Compound,Activity
1,O=C(NCc1ccccc1Cl)[C@@H]1CCC(=O)N1Cc1ccccc1,Non-Toxic
2,O=C(NCc1ccc(Cl)cc1Cl)[C@@H]1CCC(=O)N1c1cccs1,Non-Toxic
3,CN(C)/C=C1\C[C@H]2C(=O)N(Cc3ccccc3Cl)C(N(C)C)N2C1=O (stereo not given in full),Non-Toxic
4,O=C(Nc1ccc(Cl)cc1Cl)[C@@H]1CCC(=O)N1Cc1ccccc1Cl,Non-Toxic

# Test system: KM12
# Assay: Cytotoxicity against human KM12 cells assessed as effect on cell growth at 10 uM incubated for 48 hrs by sulforhodamine B assay
# Format: cell-based
# Settings: km12, 48 h
row,Compound,Activity
1,O=C(NCc1ccccc1Cl)[C@@H]1CCC(=O)N1Cc1ccccc1,Non-Toxic
2,O=C(NCc1ccc(Cl)cc1Cl)[C@@H]1CCC(=O)N1c1cccs1,Non-Toxic
3,CN(C)/C=C1\C[C@H]2C(=O)N(Cc3ccccc3Cl)C(N(C)C)N2C1=O (stereo not given in full),Non-Toxic
4,O=C(Nc1ccc(Cl)cc1Cl)[C@@H]1CCC(=O)N1Cc1ccccc1Cl,Non-Toxic

# Test system: SW-620
# Assay: Cytotoxicity against human SW620 cells assessed as effect on cell growth at 10 uM incubated for 48 hrs by sulforhodamine B assay
# Format: cell-based
# Settings: sw-620, 48 h
row,Compound,Activity
1,O=C(NCc1ccccc1Cl)[C@@H]1CCC(=O)N1Cc1ccccc1,Non-Toxic
2,O=C(NCc1ccc(Cl)cc1Cl)[C@@H]1CCC(=O)N1c1cccs1,Non-Toxic
3,CN(C)/C=C1\C[C@H]2C(=O)N(Cc3ccccc3Cl)C(N(C)C)N2C1=O (stereo not given in full),Non-Toxic
4,O=C(Nc1ccc(Cl)cc1Cl)[C@@H]1CCC(=O)N1Cc1ccccc1Cl,Non-Toxic

# Test system: SF-295
# Assay: Cytotoxicity against human SF295 cells assessed as effect on cell growth at 10 uM incubated for 48 hrs by sulforhodamine B assay
# Format: cell-based
# Settings: sf-295, 48 h
row,Compound,Activity
1,O=C(NCc1ccccc1Cl)[C@@H]1CCC(=O)N1Cc1ccccc1,Non-Toxic
2,O=C(NCc1ccc(Cl)cc1Cl)[C@@H]1CCC(=O)N1c1cccs1,Non-Toxic
3,CN(C)/C=C1\C[C@H]2C(=O)N(Cc3ccccc3Cl)C(N(C)C)N2C1=O (stereo not given in full),Non-Toxic
4,O=C(Nc1ccc(Cl)cc1Cl)[C@@H]1CCC(=O)N1Cc1ccccc1Cl,Non-Toxic

# Test system: SF-539
# Assay: Cytotoxicity against human SF539 cells assessed as effect on cell growth at 10 uM incubated for 48 hrs by sulforhodamine B assay
# Format: cell-based
# Settings: sf-539, 48 h
row,Compound,Activity
1,O=C(NCc1ccccc1Cl)[C@@H]1CCC(=O)N1Cc1ccccc1,Non-Toxic
2,O=C(NCc1ccc(Cl)cc1Cl)[C@@H]1CCC(=O)N1c1cccs1,Non-Toxic
3,CN(C)/C=C1\C[C@H]2C(=O)N(Cc3ccccc3Cl)C(N(C)C)N2C1=O (stereo not given in full),Non-Toxic
4,O=C(Nc1ccc(Cl)cc1Cl)[C@@H]1CCC(=O)N1Cc1ccccc1Cl,Non-Toxic

# Test system: M14
# Assay: Cytotoxicity against human M14 cells assessed as effect on cell growth at 10 uM incubated for 48 hrs by sulforhodamine B assay
# Format: cell-based
# Settings: m14, 48 h
row,Compound,Activity
1,O=C(NCc1ccccc1Cl)[C@@H]1CCC(=O)N1Cc1ccccc1,Non-Toxic
2,O=C(NCc1ccc(Cl)cc1Cl)[C@@H]1CCC(=O)N1c1cccs1,Non-Toxic
3,CN(C)/C=C1\C[C@H]2C(=O)N(Cc3ccccc3Cl)C(N(C)C)N2C1=O (stereo not given in full),Non-Toxic
4,O=C(Nc1ccc(Cl)cc1Cl)[C@@H]1CCC(=O)N1Cc1ccccc1Cl,Non-Toxic

# Test system: OVCAR-5
# Assay: Cytotoxicity against human OVCAR5 cells assessed as effect on cell growth at 10 uM incubated for 48 hrs by sulforhodamine B assay
# Format: cell-based
# Settings: ovcar-5, 48 h
row,Compound,Activity
1,O=C(NCc1ccccc1Cl)[C@@H]1CCC(=O)N1Cc1ccccc1,Non-Toxic
2,O=C(NCc1ccc(Cl)cc1Cl)[C@@H]1CCC(=O)N1c1cccs1,Non-Toxic
3,CN(C)/C=C1\C[C@H]2C(=O)N(Cc3ccccc3Cl)C(N(C)C)N2C1=O (stereo not given in full),Non-Toxic
4,O=C(Nc1ccc(Cl)cc1Cl)[C@@H]1CCC(=O)N1Cc1ccccc1Cl,Non-Toxic

# Test system: SK-OV-3
# Assay: Cytotoxicity against human SKOV3 cells assessed as effect on cell growth at 10 uM incubated for 48 hrs by sulforhodamine B assay
# Format: cell-based
# Settings: sk-ov-3, 48 h
row,Compound,Activity
1,O=C(NCc1ccccc1Cl)[C@@H]1CCC(=O)N1Cc1ccccc1,Non-Toxic
2,O=C(NCc1ccc(Cl)cc1Cl)[C@@H]1CCC(=O)N1c1cccs1,Non-Toxic
3,CN(C)/C=C1\C[C@H]2C(=O)N(Cc3ccccc3Cl)C(N(C)C)N2C1=O (stereo not given in full),Non-Toxic
4,O=C(Nc1ccc(Cl)cc1Cl)[C@@H]1CCC(=O)N1Cc1ccccc1Cl,Non-Toxic

# Test system: 786-0
# Assay: Cytotoxicity against human 786-0 cells assessed as effect on cell growth at 10 uM incubated for 48 hrs by sulforhodamine B assay
# Format: cell-based
# Settings: 786-0, 48 h
row,Compound,Activity
1,O=C(NCc1ccccc1Cl)[C@@H]1CCC(=O)N1Cc1ccccc1,Non-Toxic
2,O=C(NCc1ccc(Cl)cc1Cl)[C@@H]1CCC(=O)N1c1cccs1,Non-Toxic
3,CN(C)/C=C1\C[C@H]2C(=O)N(Cc3ccccc3Cl)C(N(C)C)N2C1=O (stereo not given in full),Non-Toxic
4,O=C(Nc1ccc(Cl)cc1Cl)[C@@H]1CCC(=O)N1Cc1ccccc1Cl,Non-Toxic

# Test system: A498
# Assay: Cytotoxicity against human A498 cells assessed as effect on cell growth at 10 uM incubated for 48 hrs by sulforhodamine B assay
# Format: cell-based
# Settings: a498, 48 h
row,Compound,Activity
1,O=C(NCc1ccccc1Cl)[C@@H]1CCC(=O)N1Cc1ccccc1,Non-Toxic
2,O=C(NCc1ccc(Cl)cc1Cl)[C@@H]1CCC(=O)N1c1cccs1,Non-Toxic
3,CN(C)/C=C1\C[C@H]2C(=O)N(Cc3ccccc3Cl)C(N(C)C)N2C1=O (stereo not given in full),Non-Toxic
4,O=C(Nc1ccc(Cl)cc1Cl)[C@@H]1CCC(=O)N1Cc1ccccc1Cl,Non-Toxic

# Test system: ACHN
# Assay: Cytotoxicity against human ACHN cells assessed as effect on cell growth at 10 uM incubated for 48 hrs by sulforhodamine B assay
# Format: cell-based
# Settings: not given
row,Compound,Activity
1,O=C(NCc1ccccc1Cl)[C@@H]1CCC(=O)N1Cc1ccccc1,Non-Toxic
2,O=C(NCc1ccc(Cl)cc1Cl)[C@@H]1CCC(=O)N1c1cccs1,Non-Toxic
3,CN(C)/C=C1\C[C@H]2C(=O)N(Cc3ccccc3Cl)C(N(C)C)N2C1=O (stereo not given in full),Non-Toxic
4,O=C(Nc1ccc(Cl)cc1Cl)[C@@H]1CCC(=O)N1Cc1ccccc1Cl,Non-Toxic

# Test system: UO-31
# Assay: Cytotoxicity against human UO31 cells assessed as effect on cell growth at 10 uM incubated for 48 hrs by sulforhodamine B assay
# Format: cell-based
# Settings: uo-31, 48 h
row,Compound,Activity
1,O=C(NCc1ccccc1Cl)[C@@H]1CCC(=O)N1Cc1ccccc1,Non-Toxic
2,O=C(NCc1ccc(Cl)cc1Cl)[C@@H]1CCC(=O)N1c1cccs1,Non-Toxic
3,CN(C)/C=C1\C[C@H]2C(=O)N(Cc3ccccc3Cl)C(N(C)C)N2C1=O (stereo not given in full),Non-Toxic
4,O=C(Nc1ccc(Cl)cc1Cl)[C@@H]1CCC(=O)N1Cc1ccccc1Cl,Non-Toxic

# Test system: DU-145
# Assay: Cytotoxicity against human DU145 cells assessed as effect on cell growth at 10 uM incubated for 48 hrs by sulforhodamine B assay
# Format: cell-based
# Settings: du-145, 48 h
row,Compound,Activity
1,O=C(NCc1ccccc1Cl)[C@@H]1CCC(=O)N1Cc1ccccc1,Non-Toxic
2,O=C(NCc1ccc(Cl)cc1Cl)[C@@H]1CCC(=O)N1c1cccs1,Non-Toxic
3,CN(C)/C=C1\C[C@H]2C(=O)N(Cc3ccccc3Cl)C(N(C)C)N2C1=O (stereo not given in full),Non-Toxic
4,O=C(Nc1ccc(Cl)cc1Cl)[C@@H]1CCC(=O)N1Cc1ccccc1Cl,Non-Toxic
